Experimental data published in patent publication US5985302A, “Method for deactivating a contaminant” (priority 1998, dated 1999).
Read-outs that look alike come from different tables or passages of the source.

Legend:
[1] = tested on: Salmonella Typhimurium TA 98 strain; experiment: Mutagenic activity (revertant colonies) of DNA intercalators treated with calcium hypochlorite; assay type: cell-based; conditions: for No. colonies of revertant organisms: drug 10 ng/ml
Description: Solutions of DNA intercalators (doxorubicin, daunorubicin and mitoxantrone)in concentrations of 10 ng/ml D5W were applied in 5 ml quantities to separate petri dishes. Two different concentrations of calcium hypochlorite, 40 g/l and 423 g/l, were applied in 1 ml. volumes separately to the anticancer drug solutions in each petri dish for a period of one minute. After thorough mixing and neutralization of the pH to 7.4 using HCl, 1 ml of each petri dish solution was applied to 35 mm petri dishes containing cultures of Salmonella Typhimurium TA 98 strain. The petri dishes containing bacteria plus overlaid mixtures of calcium hypochlorite/anticancer drug and control plates with bacteria alone were then incubated at 37° C. for 24 hours.

[2] = assay type: physicochemical; conditions: for Concentration by fluorescence (chromophore recovery): 10 ng on column
Description: Treatment of the drugs with calcium hypochlorite was carried out as described in Example 1. One ml aliquots of doxorubicin, daunorubicin and mitoxantrone, separately, were taken from the petri dishes after calcium hypochlorite exposure at two different concentrations for a period of one minute. Ten (10) ng of each of the anticancer drug (based on the final concentration resulting from the addition of calcium hypochlorite to the separate petri dishes containing each anticancer agent) was added to a high performance liquid chromatography column and standard HPLC assays were carried out. A reverse phase C-18 bonded phase HPLC procedure was used. The mobile phase consisted of 30:70 CH3 CN:ammonium acetate at a flow rate of 2 ml/min., using a Varian model 5020 HPLC unit. The anticancer drugs were detected using excitation at 480 nm and emission at 550 nm with a Schoeffel model FS 970 fluoroescence detector.

[3] = Deactivation and decolorization of anticancer drugs by hypochlorite; conditions: calcium or sodium hypochlorite
Source text: In accordance with the invention, HIV infected blood, or any of a number of active anticancer drugs, can be inactivated by applying thereto an aqueous solution containing 4-40% by weight of calcium or sodium hypochlorite. HIV infected blood, as well as any anticancer agent which can undergo oxidative or alkaline degradation can be deactivated in accordance with the method of the invention. Among the anticancer agents which can be effectively deactivated are the following:
In addition to chemically deactivating the anti-cancer drugs, the method of the invention is also effective to decolorize those, e.g., the anthracyclines, doxorubicin and daunorubicin, which are naturally red in color, and the alkylating agent mitomycin C, which is naturally purple in color, which stain fabrics which they contact. The method of the invention renders the naturally colored anticancer drugs colorless, thus preventing permanent damage to clothes or other materials which come in contact with the drugs.
It has also been determined that HIV infected blood and most anticancer drugs can be deactivated by application of a solution of calcium or sodium hypochlorite in water at a concentration of 4% by weight.

[4] = tested on: HIV-infected CD4+ human cell line (H9/IIIB); experiment: HIV inactivation by dilute calcium hypochlorite; assay type: cell-based, HIV; human cells
Description: The ability of dilute calcium hypochlorite to inactivate HIV was tested against an HIV-infected CD4+ human cell line (H9/IIIB).
H9/IIIB cells (10^6 cells/ml of complete culture medium, RPMI in 10% fetal calf serum [FCS]) were exposed to an aqueous solution containing 4% by weight of calcium hypochlorite for 15 minutes; the volumetric ratio of culture medium to calcium hypochlorite solution was 1:1, or a 50% dilution of a 4% dilute calcium hypochlorite solution in culture medium containing 10% serum. The cells were subsequently washed three times with 10% FCS RPMI and plated in fresh medium and allowed to incubate at 37° C. for three days, to allow any residual live virus and/or virus-infected cells to develop after the brief exposure to the dilute calcium hypochlorite solution. The cells were again pelleted and exposed to lytic CD4+ human cell line (MOT) as a target for any viable virus. The target MOT cells will lyse when infected with HIV. These cells were then allowed to incubate an additional four days. Next, the cells were incubated with human anti-HIV antibody (prepared in accordance the procedures described in Lake DA, Sugano T, Matsumoto Y, et al: "A Hybridoma Producing Monoclonal Antibody Specific for Glycoprotein 120 kDa of Human Immunodeficiency Virus (HIV-1), Life Sciences 45:iii-x, 1989.) for one hour, and then washed and incubated with fluorescent labeled goat anti-human IgG for one hour. The method for HIV detection by formaldehyde fixation and flow cytometry was in accordance with the method described in Lifson JD, Sasaki DT, Engleman EG: "Utility of Formaldehyde Fixation for Flow Cytometry and Inactivation of the AIDS Associated Retrovirus", J Immunological Methods 86:143-149, 1986.
As a positive control, the above procedure was followed with HIV-infected H9/IIIB cells exposed only to culture medium rather than to culture medium and calcium hypochlorite. As a negative control, the above procedure was followed with uninfected H9 cells exposed to an aqueous solution containing 4% by weight of calcium hypochlorite.

[5] = Towlette swabs for work surfaces contaminated by doxorubicin; conditions: 5% impregnated towlette; stainless steel surface
Source text: The Experimental Materials used are as described above in Example 8. A first fresh, dry test swab or towlette is impregnated with a 5.25% by weight aqueous solution of sodium hypochlorite by applying 5 (five) ml. of the sodium hypochlorite solution to the test swab. A second fresh, dry test swab or towlette is impregnated with a 5% by weight aqueous solution of sodium thiosulfate by applying 5 (five) ml. of the sodium thiosulfate solution to the test swab.
Doxorubicin is placed on a stainless steel work surface, which should cause a red stain to appear.
The sodium thiosulfate impregnated towlette is then wiped, or swabbed, over the work surface containing the chemically inactivated doxorubicin spill.

[6] = tested on: HIV infected cells (H9/IIIB); experiment: Towlette swabs for work surfaces contaminated by HIV infected cells; set-up: species or system HIV; human cells; conditions: 5% impregnated towlette; stainless steel surface
Source text: Test Swabs: 17×23 cm nylon-reinforced 4 ply, #34770, each weighing approximately 2.6 gram Terri® Wipers, manufactured by Kimberly Clark, Neenah, Wis.
Bleach: 4% by weight aqueous solution of calcium hypochlorite.
Sodium thiosulfate: 5% by weight aqueous solution, supplied by Tarijian Labs, Inc., Queens Village, N.Y.
HIV infected Cells: H9/IIIB cells (10^6 cells/ml of complete culture medium, RPI in 10% fetal calf serum [FCS]), as described above in Example 6.
A first fresh, dry test swab or towlette is impregnated with a 4.0% by weight aqueous solution of calcium hypochlorite by applying 5 (five) ml. of the calcium hypochlorite solution to the test swab. A second fresh, dry test swab or towlette is impregnated with a 5% by weight aqueous solution of sodium thiosulfate by applying 5 (five) ml. of the sodium thiosulfate solution to the test swab.
A small amount of the HIV infected cells are placed on a stainless steel work surface.
The sodium thiosulfate impregnated towlette is then wiped, or swabbed, over the work surface containing the inactivated virus.

[7] = calcium hypochlorite 40 g/l, one minute
[8] = calcium hypochlorite 423 g/l, one minute
[9] = no calcium hypochlorite, 37° C., 24 hours
[10] = calcium hypochlorite 0 (control)
[11] = lower concentration of calcium hypochlorite (40 g/l), one minute

| SMILES | No. colonies of revertant organisms [1, 7] [colonies] | No. colonies of revertant organisms [1, 8] [colonies] | No. colonies of revertant organisms [1, 9] [colonies] | Concentration by fluorescence (chromophore recovery) [2, 10] [ng] | Concentration by fluorescence (chromophore recovery) ([2]; calcium hypochlorite 40 g/l) [ng] | Concentration by fluorescence (chromophore recovery) ([2]; calcium hypochlorite 423 g/l) [ng] | chemical evidence of drug [2, 11] | also measured |
| --- | --- | --- | --- | --- | --- | --- | --- | --- |
| COc1cccc2c1C(=O)c1c(O)c3c(c(O)c1C2=O)C[C@@](O)(C(C)=O)C[C@@H]3O[C@H]1C[C@H](N)[C@H](O)[C@H](C)O1 [Daunorubicin] | 0 | 0 | 365 | 9.8 | 0 | 0 | no chemical evidence | – |
| COc1cccc2c1C(=O)c1c(O)c3c(c(O)c1C2=O)C[C@@](O)(C(=O)CO)C[C@@H]3O[C@H]1C[C@H](N)[C@H](O)[C@H](C)O1 [Doxorubicin] | 0 | 0 | 257 | 9.7 | 0 | 0 | no chemical evidence | – |
| O=C1c2c(O)ccc(O)c2C(=O)c2c(NCCNCCO)ccc(NCCNCCO)c21 [Mitoxantrone] | 44 | 0 | 164 | 10.1 | 3.8 | 0 | – | bacterial revertant growth ([1]; lower concentration of calcium hypochlorite (40 g/l)): associated with bacterial revertant growth; degradation ([2]; lower concentration of calcium hypochlorite (40 g/l), one minute, 1 min): approximately 60%; hypochlorite concentration that may be required for substantially complete deactivation [3]: up to 40 % by weight |
| [Ca+2].[O-]Cl.[O-]Cl [calcium hypochlorite] | – | – | – | – | – | – | – | No. colonies of revertant organisms, control without drug ([1]; calcium hypochlorite 40 g/l): 0 colonies; No. colonies of revertant organisms, control without drug ([1]; calcium hypochlorite 423 g/l): 0 colonies; HIV / infected cell inactivation ([4]; 4% by weight, 1:1 volumetric ratio, 15 minutes): completely inactivates; viable HIV present ([4]; after four day incubation): no viable HIV varions present; HIV antibody binding ([4]; antibody specific to the 120 kDa viral glycoprotein): no HIV antibody binding is detectable; signs of HIV infection under fluorescent microscope ([4]; fluorescent anti-HIV antibody): no signs of HIV infection; lysis of cells ([4]; non-infected and HIV infected cells, n=4 each): completely lysed |
| O=S([O-])([O-])=S.[Na+].[Na+] [sodium thiosulfate] | – | – | – | – | – | – | – | neutralization of residual sodium hypochlorite [5]: should neutralize any residual sodium hypochlorite; neutralization of residual calcium hypochlorite [6]: should neutralize any residual calcium hypochlorite |
